According to patent US20240270699A1, “COMPOUNDS HAVING N-ARYLPYRIMIDIN-2-AMINE DERIVATIVES AS THERAPEUTIC AGENTS” (Lomond Therapeutics, Inc., priority 2021, published 2024):

Target: T1, recombinant HPK1 protein (Homo sapiens, UniProt Q92918)
T1 construct: purchased Promega V6398
T1 sequence (Q92918 1-346 limits assumed): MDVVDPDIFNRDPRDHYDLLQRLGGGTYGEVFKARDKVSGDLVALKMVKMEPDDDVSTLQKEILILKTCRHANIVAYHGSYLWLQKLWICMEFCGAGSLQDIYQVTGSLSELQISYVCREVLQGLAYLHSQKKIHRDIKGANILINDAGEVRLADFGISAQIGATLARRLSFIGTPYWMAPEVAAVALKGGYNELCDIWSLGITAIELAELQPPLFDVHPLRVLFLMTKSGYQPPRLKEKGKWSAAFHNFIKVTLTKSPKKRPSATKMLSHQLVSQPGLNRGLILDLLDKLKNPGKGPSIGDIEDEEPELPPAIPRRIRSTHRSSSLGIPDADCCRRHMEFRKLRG
Test: Primary assay of HPK1 enzymatic activity inhibition (ADP-Glo luminescence)
Format: biochemical
Conditions: recombinant HPK1, MBP substrate, 1 hour at room temperature

IC50 [nM]	SMILES
≥ 500	CS(=O)(=O)c1ccc(Nc2ncc(C#N)c(N[C@H](CO)c3ccccc3)n2)cc1F [Compound 2, 2-{[3-fluoro-4-(methylsulfonyl)phenyl]amino}-4-{[(1S)-2-hydroxy-1-phenylethyl]amino}pyrimidine-5-carbonitrile]
50 to 200	CCOC(=O)c1cnc(Nc2ccc(C(N)=O)c(C)c2)nc1N[C@H](CO)c1ccccc1 [Compound 10, Ethyl 2-(4-carbamoyl-3-methyl-anilino)-4-[[(1S)-2-hydroxy-1-phenyl-ethyl]amino]pyrimidine-5-carboxylate]
200 to 500	Cc1cc(Nc2ncc([N+](=O)[O-])c(N[C@H](CO)c3ccccc3)n2)ccc1S(C)(=O)=O [Compound 18, (2S)-2-[[2-(3-methyl-4-methylsulfonyl-anilino)-5-nitro-pyrimidin-4-yl]amino]-2-phenyl-ethanol]
≥ 500	CS(=O)(=O)c1ccc(Nc2ncc(C(=O)O)c(N[C@H](CO)c3ccccc3)n2)cc1F [Compound 42, 2-{[3-fluoro-4-(methylsulfonyl)phenyl]amino}-4-{[(1S)-2-hydroxy-1-phenylethyl]amino}pyrimidine-5-carboxylic Acid]
≥ 500	CCOC(=O)c1cnc(Nc2ccc(C(=O)NC)c(C)c2)nc1N[C@H](CO)c1ccccc1 [Compound 48, Ethyl 4-[[(1S)-2-hydroxy-1-phenyl-ethyl]amino]-2-[3-methyl-4-(methylcarbamoyl)anilino]pyrimidine-5-carboxylate]
200 to 500	CCOC(=O)c1cnc(Nc2ccc(C(=O)O)c(OC)c2)nc1N[C@H](CO)c1ccccc1 [Compound 62, 4-[[5-ethoxycarbonyl-4-[[(1S)-2-hydroxy-1-phenyl-ethyl]amino]pyrimidin-2-yl]amino]-2-methoxy-benzoic acid]
< 50	CN1CCc2cc(Nc3ncc(-c4nnco4)c(N[C@H](CO)c4ccccc4)n3)ccc2C1=O [Compound 89, 6-[[4-[[(1S)-2-hydroxy-1-phenyl-ethyl]amino]-5-(1,3,4-oxadiazol-2-yl)pyrimidin-2-yl]amino]-2-methyl-3,4-dihydroisoquinolin-1-one]
≥ 500	CCOC(=O)c1cnc(Nc2ccc(S(C)(=O)=O)c(F)c2)nc1N[C@H](C)c1ccccc1 [Compound 97, ethyl 2-(3-fluoro-4-methylsulfonyl-anilino)-4-[[(1R)-1-phenylethyl]amino]pyrimidine-5-carboxylate]
≥ 500	CNC(=O)c1cnc(Nc2ccc(C(F)(F)F)c(Cl)c2)nc1N[C@H](CO)c1ccccc1 [Compound 132, 2-{[3-chloro-4-(trifluoromethyl)phenyl]amino}-4-{[(1S)-2-hydroxy-1-phenylethyl]amino}-N-methylpyrimidine-5-carboxamide]
< 50	Cc1noc(-c2cnc(Nc3ccc4c(c3)CCN(C)C4=O)nc2N[C@H](CO)c2ccccc2)n1 [Compound 183, 6-[[4-[[(1S)-2-hydroxy-1-phenyl-ethyl]amino]-5-(3-methyl-1,2,4-oxadiazol-5-yl)pyrimidin-2-yl]amino]-2-methyl-3,4-dihydroisoquinolin-1-one]
200 to 500	CCOC(=O)c1cnc(Nc2ccc(C(=O)N(C)C)c(OC)c2)nc1N[C@H](CO)c1ccccc1 [Compound 247, Ethyl 2-[4-(dimethylcarbamoyl)-3-methoxy-anilino]-4-[[(1S)-2-hydroxy-1-phenyl-ethyl]amino]pyrimidine-5-carboxylate]
≥ 500	CCOC(=O)c1cnc(Nc2ccc(C(F)(F)F)c(Cl)c2)nc1N[C@H](CO)c1ccccc1 [Compound 248, Ethyl 2-{[3-chloro-4-(trifluoromethyl)phenyl]amino}-4-{[(1S)-2-hydroxy-1-phenylethyl]amino}pyrimidine-5-carboxylate]
≥ 500	CCOC(=O)c1cnc(Nc2ccc(S(C)(=O)=O)c(F)c2)nc1N[C@H]1c2ccccc2C[C@H]1O [Compound 298, ethyl 2-(3-fluoro-4-methylsulfonyl-anilino)-4-[[(1S,2R)-2-hydroxyindan-1-yl]amino]pyrimidine-5-carboxylate]
≥ 500	CCOC(=O)c1cnc(Nc2ccc(S(C)(=O)=O)cc2OC)nc1N[C@H](CO)c1ccccc1 [Compound 299, Ethyl 4-{[(1S)-2-hydroxy-1-phenylethyl]amino}-2-{[2-methoxy-4-(methylsulfonyl)phenyl]amino}pyrimidine-5-carboxylate]
≥ 500	CCOC(=O)c1cnc(Nc2ccc3c(c2)CCN(C(C)C)C3=O)nc1N[C@H](CO)c1ccccc1 [Compound 316, Ethyl 4-[[(1S)-2-hydroxy-1-phenyl-ethyl]amino]-2-[(2-isopropyl-1-oxo-3,4-dihydroisoquinolin-6-yl)amino]pyrimidine-5-carboxylate]
≥ 500	CS(=O)(=O)c1ccc(Nc2ncc(C(=O)N3CCCC3)c(N[C@H](CO)c3ccccc3)n2)cc1F [Compound 371, [2-(3-fluoro-4-methylsulfonyl-anilino)-4-[[(1S)-2-hydroxy-1-phenyl-ethyl]amino]pyrimidin-5-yl]-pyrrolidin-1-yl-methanone]
≥ 500	CCOC(=O)c1cnc(Nc2ccc(S(C)(=O)=O)c(F)c2)nc1N1Cc2ccccc2CC1CO (stereo not drawn) [Compound 388, ethyl 2-(3-fluoro-4-methylsulfonyl-anilino)-4-[3-(hydroxymethyl)-3,4-dihydro-1H-isoquinolin-2-yl]pyrimidine-5-carboxylate]
≥ 500	CN(CCO)C(=O)c1cnc(Nc2ccc(S(C)(=O)=O)c(F)c2)nc1N[C@H](CO)c1ccccc1 [Compound 402, 2-(3-fluoro-4-methylsulfonyl-anilino)-N-(2-hydroxyethyl)-4-[[(1S)-2-hydroxy-1-phenyl-ethyl]amino]-N-methyl-pyrimidine-5-carboxamide]
≥ 500	O=C(NC1CCCC1)c1cnc(Nc2ccc(F)c(-c3ccccc3)c2)nc1N[C@H](CO)c1ccccc1 [Compound 440, N-cyclopentyl-2-[(6-fluorobiphenyl-3-yl)amino]-4-{[(1S)-2-hydroxy-1-phenylethyl]amino}pyrimidine-5-carboxamide]
≥ 500	CCOC(=O)c1cnc(Nc2ccc3c(c2)C(=O)NC(C(C)C)C(=O)N3)nc1N[C@H](CO)c1ccccc1 (stereo partly drawn) [Compound 467, Ethyl 4-[[(1S)-2-hydroxy-1-phenyl-ethyl]amino]-2-[(3-isopropyl-2,5-dioxo-3,4-dihydro-1H-1,4-benzodiazepin-7-yl)amino]pyrimidine-5-carboxylate]
≥ 500	O=C(NC1CCCC1)c1cnc(Nc2ccc(C(F)(F)F)c(Cl)c2)nc1N[C@H](CO)c1ccccc1 [Compound 472, 2-{[3-chloro-4-(trifluoromethyl)phenyl]amino}-N-cyclopentyl-4-{[(1S)-2-hydroxy-1-phenylethyl]amino}pyrimidine-5-carboxamide]
< 50	CCOC(=O)c1cnc(Nc2ccc3c(c2)CNC3=O)nc1N[C@H](CO)c1ccccc1 [Compound 565, ethyl 4-[[(1S)-2-hydroxy-1-phenyl-ethyl]amino]-2-[(1-oxoisoindolin-5-yl)amino]pyrimidine-5-carboxylate]
≥ 500	N#Cc1cnc(Nc2ccc3c(c2)CCNC3=O)nc1N[C@H](CO)c1ccccc1 [Compound 567, 4-[[(1S)-2-hydroxy-1-phenyl-ethyl]amino]-2-[(1-oxo-3,4-dihydro-2H-isoquinolin-6-yl)amino]pyrimidine-5-carbonitrile]
≥ 500	CCOC(=O)c1cnc(Nc2ccc3c(c2)NC(=O)CCC3)nc1N[C@H](CO)c1ccccc1 [Compound 574, ethyl 4-[[(1S)-2-hydroxy-1-phenyl-ethyl]amino]-2-[(2-oxo-1,3,4,5-tetrahydro-1-benzazepin-8-yl)amino]pyimidine-5-carboxylate]
50 to 200	CCOC(=O)c1cnc(N(c2ccc3c(c2)CCCNC3=O)c2ncc(C(=O)OCC)c(N[C@H](CO)c3ccccc3)n2)nc1N[C@H](CO)c1ccccc1 [Compound 576, ethyl 2-[[5-ethoxycarbonyl-4-[[(1S)-2-hydroxy-1-phenyl-ethyl]amino]pyrimidin-2-yl]-(1-oxo-2,3,4,5-tetrahydro-2-benzazepin-7-yl)amino]-4-[[(1S)-2-hydroxy-1-phenyl-ethyl]amino]pyrimidin-5-carboxylate]
≥ 500	CS(=O)(=O)c1ccc(Nc2ncc3[nH]c(=O)n([C@H](CO)c4ccccc4)c3n2)cc1F [Compound 577, 2-(3-fluoro-4-methylsulfonyl-anilino)-9-[(1S)-2-hydroxy-1-phenyl-ethyl]-7H-purin-8-one]

SMILES	IC50 [nM]
C=Cc1noc(-c2cnc(Nc3ccc4c(c3)CCN(COCC[Si](C)(C)C)C4=O)nc2N[C@H](CO)c2ccccc2)n1 [Compound 580, 6-[[4-[[(1S)-2-hydroxy-1-phenyl-ethyl]amino]-5-(3-vinyl-1,2,4-oxadiazol-5-yl)pyrimidin-2-yl]amino]-2-(2-trimethylsilylethoxymethyl)-3,4-dihydroisoquinolin-1-one]	< 50

Test system: Jurkat cells
Test: IL-2 release Jurkat assay (anti-CD3/anti-CD28 stimulation, IL-2 ELISA)
Format: cell-based, human
Conditions: Table C: Jurkat, 6 μM of tested compounds, activation with 400 ng/mL aCD3 + 400 ng/mL aCD28, 24 hours; stimulated vehicle = A

SMILES	IL-2, pg/mL stimulated
Cc1cc(Nc2ncc([N+](=O)[O-])c(N[C@H](CO)c3ccccc3)n2)ccc1S(C)(=O)=O [Compound 18, (2S)-2-[[2-(3-methyl-4-methylsulfonyl-anilino)-5-nitro-pyrimidin-4-yl]amino]-2-phenyl-ethanol]	D (150 pg/mL≤IL-2)

Same assay, conditions: Table D: Jurkat, 6 μM of tested compounds, activation with 400 ng/mL aCD3 + 400 ng/mL aCD28, 24 hours; stimulated vehicle = B

SMILES	IL-2, pg/mL stimulated
CCOC(=O)c1cnc(Nc2ccc(C(N)=O)c(C)c2)nc1N[C@H](CO)c1ccccc1 [Compound 10, Ethyl 2-(4-carbamoyl-3-methyl-anilino)-4-[[(1S)-2-hydroxy-1-phenyl-ethyl]amino]pyrimidine-5-carboxylate]	D (150 pg/mL≤IL-2)

Same assay, conditions: Table G: Jurkat, 1.0 μM of tested compounds, activation with 400 ng/mL aCD3 + 400 ng/mL aCD28, 24 hours

SMILES	IL-2, pg/mL stimulated
Cc1noc(-c2cnc(Nc3ccc4c(c3)CCN(COC(=O)C(C)(C)C)C4=O)nc2N[C@H](CO)c2ccccc2)n1 [Compound 581, [6-[[4-[[(1S)-2-hydroxy-1-phenyl-ethyl]amino]-5-(3-methyl-1,2,4-oxadiazol-5-l)pyrimidin-2-yl]amino]-1-oxo-3,4-dihydroisoquinolin-2-yl]methyl 2,2-dimethylpropanoate]	D (150 pg/mL≤IL-2)
